Several values for one entry are separate records, joined by “and”; a condition that tells them apart may be missing. Identical values can stand only once. Like-named read-outs stand apart in the source and are kept apart here.
Experiments:
Settings in all cases: human, in vivo
chronic migraine [1] = test system: chronic migraine
chronic migraine [2] = test system: chronic migraine; remark: listed apart in the source
migraine [3] = test system: migraine
chronic migraine [4] = test system: chronic migraine; remark: listed apart in the source
migraine [5] = test system: migraine; remark: listed apart in the source

## OnabotulinumtoxinA
Chronic migraine [1]
  improvement of headache days from baseline: about 50%
  migraine days per month: 15 days per month
Chronic migraine [2]
  headache frequency: 10 days a month
Migraine [3]
  headache frequency: 10/30
  headache intensity: 6-7 out of a scale of 10
Chronic migraine [4]
  headache frequency post treatment: 14 days/month
Migraine [5]
  headache intensity: 7 out of 10

## CN(C)CCC=C1c2ccccc2CCc2ccccc21 [Amitriptyline, amitriptyline]
Migraine [3]
  change of headaches with oral medication: minimal change
Migraine [5]
  adverse effect of oral preventive medication: weight gain
  effect of oral preventive medication on headache frequency: none of these reduced their headache frequency

## CC12CC3CC(C)(C1)CC(N)(C3)C2 [Namenda, memantine]
Migraine [3]
  benefit of added treatment: minimal benefit

## C[C@@H]1[C@H](c2c(F)ccc(F)c2F)C[C@H](NC(=O)c2cnc3c(c2)C[C@@]2(C3)C(=O)Nc3ncccc32)C(=O)N1CC(F)(F)F [atogepant, reference compound]
Chronic migraine [2]
  headache frequency: 9 days a month

## CC1(C)O[C@@H]2[C@@H](CO[C@@]3(COS(N)(=O)=O)OC(C)(C)O[C@@H]23)O1 [topiramate]
Chronic migraine [1]; po
  headache control with oral preventive medication: without headache control
Migraine [3]
  change of headaches with oral medication: minimal change
Migraine [5]
  adverse effect of oral preventive medication: cognitive slowing
  effect of oral preventive medication on headache frequency: none of these reduced their headache frequency

## CC(C)NCC(O)COc1cccc2ccccc12 (centres unmarked) [Propranolol]
Migraine [5]
  adverse effect of oral preventive medication: limited their exercise tolerance
  effect of oral preventive medication on headache frequency: none of these reduced their headache frequency

B1: Ajovy (antibody, chains of the INN, looked up, V domains shown)
VH: EVQLVESGGGLVQPGGSLRLSCAASGFTFSNYWISWVRQAPGKGLEWVAEIRSESDASATHYAEAVKGRFTISRDNAKNSLYLQMNSLRAEDTAVYYCLAYFDYGLAIQNYWGQGTLVTVSS
VL: EIVLTQSPATLSLSPGERATLSCKASKRVTTYVSWYQQKPGQAPRLLIYGASNRYLGIPARFSGSGSGTDFTLTISSLEPEDFAVYYCSQSYNYPYTFGQGTKLEIK
Migraine [5]; sc
  headache intensity: lower intensity

B2: erenumab (antibody, chains of the INN, looked up, V domains shown)
VH: QVQLVESGGGVVQPGRSLRLSCAASGFTFSSFGMHWVRQAPGKGLEWVAVISFDGSIKYSVDSVKGRFTISRDNSKNTLFLQMNSLRAEDTAVYYCARDRLNYYDSSGYYHYKYYGMAVWGQGTTVTVSS
VL: QSVLTQPPSVSAAPGQKVTISCSGSSSNIGNNYVSWYQQLPGTAPKLLIYDNNKRPSGIPDRFSGSKSGTSTTLGITGLQTGDEADYYCGTWDSRLSAVVFGGGTKLTVL
Chronic migraine [4]
  headache frequency: 10 days/month and 15 days/month
